Data on 4 molecules can be found in USRE47826E1, “Drug delivery device for providing local analgesia, local anesthesia or nerve blockage” (INNOCOLL PHARMACEUTICALS LIMITED, priority 2007, dated 2020).

Series [1] in a line: Clinical study: bupivacaine plasma pharmacokinetics after sponge implantation. The series is classed as in vivo, human.
Description: Patients received three 5 cm×5 cm (×0.5 cm thick) sponges; one sponge divided between areas adjacent the surgical site (in this case, adjacent the location of the now-removed uterus), one sponge divided and placed across the incision in the wall of the body cavity (in this case, the peritoneum) and the final sponge divided and placed between the sheath and skin around the incision. Each sponge contained 50 mg of bupivacaine hydrochloride, giving a total dose of 150 mg per patient.
The patients were scheduled to receive a hysterectomy in the absence of uterine adenocarcinoma, cervical cancer, leiomyosarcoma or the suspicion of these cancers.
Another series concerns plasma proteins. As to conditions: cited from earlier work.
For series [2] the following is noted: neonates; cited from earlier work.
The conditions of series [3]: in vivo; cited from earlier work.
Series [4] concerns hysterectomy patients. As to conditions: cited from earlier work; for average postoperative morphine consumption: infiltration in deep and superficial layers of the wound after abdominal hysterectomy.
The test system of series [5] is Caesarian section patients. As to conditions: […] or 0.5%, 20 ml, cited from earlier work.
Series [6] concerns hysterectomy patients. As to conditions: cited from earlier work.
Where [7] appears, read: mean, n=11, three sponges, 150 mg.

As usually defined, the Cmax is the highest concentration seen after dosing. What is called AUC(0-inf) is total exposure, with the tail of the curve extrapolated. A lower AUC(0-inf) goes with low exposure. Usually AUC(0-t) stands for exposure summed from dosing to a finite time, without extrapolation to infinity. A lower AUC(0-t) goes with low exposure. A word on the Tmax: it is the time at which the peak concentration occurs.

Structures are written as SMILES. Counter-ions that a name gives are not always drawn. Like-named read-outs stand apart in the source and are kept apart here.

`CCCCN1CCCCC1C(=O)Nc1c(C)cccc1C` (stereo not drawn) [Bupivacaine Hydrochloride]: the tlag in series [1] (efficacy population n=12, three sponges, 150 mg bupivacaine HCl, column head Mean, marked *) is listed as 0.000 h. The Cmax in series [1] (female, human, 150 mg, mean, n=12, three sponges, 150 mg bupivacaine HCl, read-out: Cmax) was determined as 225 ng/mL. For the same molecule, the AUC(0-inf) in series [1] (female, human, mean, n=11, three sponges, 150 mg) is 6360 ng·h/mL. The AUC(0-t) in series [1] (female, human, mean, n=12, three sponges, 150 mg) was found to be 6530 ng·h/mL. Further, the Tmax in series [1] (female, human, n=12, three sponges, 150 mg, column head Mean, marked *) was 12 h. Further, in series [1] (setting [7]), the t1/2z was 10.092 h and the λz turned out to be 0.07084 h⁻¹.
Regarding `CCCCN1CCCCC1C(=O)Nc1c(C)cccc1C` (stereo not drawn) [bupivacaine, Bupivacaine], the Cmax in series [1] (female, human, 150 mg, after implantation of three bupivacaine-collagen sponges, 150 mg, read-out: highest individual Cmax) came to 440 ng/mL; in series [1] (female, human, 150 mg, after implantation of three bupivacaine-collagen sponges, 150 mg, read-out: mean Cmax) it was 220 ng/mL. For the same molecule, in the series with plasma proteins, the “bound to plasma proteins” value is on record as “about 95%”. Also, the Reported half-lives entry in series [2] was “about 8 hours”. Further, in series [3], the “known systemic toxicity level” value is 2 to 4 µg/mL. For the same molecule, the “reduction in analgesic consumption” value is recorded as 50% with hysterectomy patients [4] ([…] solution 45 ml infiltrated subfascially and subcutaneously, Hannibal); 20-50% in series [5] (three studies on Caesarian section). For the same molecule, the “average postoperative morphine consumption” value with hysterectomy patients [4] (Klein et al 2000) is 54 mg; in the series on hysterectomy patients [4] (Ng et al 2002), 44 mg. Moreover, the “analgesia compared with no treatment” value in the series on hysterectomy patients [4] (subcutaneous infiltration of solution, Cobby 1997, Victory 1995) is listed as “no improvement in analgesia”. The “duration of the effect on analgesic consumption” value in series [5] (Caesarian section) is 4 h.
`CCCCN1CCCC[C@H]1C(=O)Nc1c(C)cccc1C` [levobupivacaine]: the “incisional pain, deep pain and pain on coughing versus normal saline” value in the series on hysterectomy patients [6] ([…] infusion 12.5 mg/hr over 24 hours, 1-2 hours post surgery) is recorded as “significant reduction”. For the same molecule, the “Total ketobemidone (PCA narcotic)” value with hysterectomy patients [6] ([…] infusion 12.5 mg/hr, 4-24 hour period) is on record as “significantly reduced”.
On to `CCN(CC)CC(=O)Nc1c(C)cccc1C` [lidocaine], for which the “reduction in pain scores and supplementary analgesic consumption” value in the series on hysterectomy patients [4] (500 mg aerosol subcutaneously, first 24 hours, Sinclair et al 1996) was “approximately 50%”.
